Results reported in patent US20140135310A1, “SULPHONAMIDE DERIVATIVES OF ALICYCLIC AMINES FOR THE TREATMENT OF CENTRAL NERVOUS SYSTEM DISEASES” (Adamed Sp. z o.o., priority 2011, published 2014).

Assays:
[1] = target: T1, serotonin transporter (SERT) (Homo sapiens, UniProt P31645); assay: Radioligand binding assay, serotonin transporter (SERT); details: binding assay, test compound 1×10^−6 M
T1 construct: expressed in transfected cells; host or cells: CHO cells
Procedure, shortened: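 Radioligand competition binding with scintillation detection; specific binding is total minus binding under excess unlabelled ligand. Reported as % of control specific binding or % inhibition; IC50 from Hill-equation non-linear regression of competition curves, and Ki via Cheng-Prusoff using radioligand concentration and Scatchard-derived KD.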

[2] = test system: α1 adrenergic receptors (rat cerebral cortex); assay: Radioligand binding assay, adrenergic α1 receptors; details: test compound 1×10^−6 M
Procedure, shortened: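 Values derive from radioligand displacement, with non-specific binding defined by excess cold ligand and detection by scintillation. Hill-fit IC50s were converted to Ki via Cheng-Prusoff using Scatchard-derived Kd; percent inhibition of control specific binding also reported.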

[3] = target: dopaminergic receptors D3 (Homo sapiens, UniProt P35462); assay: Radioligand binding assay, dopaminergic D3 receptors; details: test compound 1×10^−6 M
Chain of dopaminergic receptors D3 (P35462 whole entry): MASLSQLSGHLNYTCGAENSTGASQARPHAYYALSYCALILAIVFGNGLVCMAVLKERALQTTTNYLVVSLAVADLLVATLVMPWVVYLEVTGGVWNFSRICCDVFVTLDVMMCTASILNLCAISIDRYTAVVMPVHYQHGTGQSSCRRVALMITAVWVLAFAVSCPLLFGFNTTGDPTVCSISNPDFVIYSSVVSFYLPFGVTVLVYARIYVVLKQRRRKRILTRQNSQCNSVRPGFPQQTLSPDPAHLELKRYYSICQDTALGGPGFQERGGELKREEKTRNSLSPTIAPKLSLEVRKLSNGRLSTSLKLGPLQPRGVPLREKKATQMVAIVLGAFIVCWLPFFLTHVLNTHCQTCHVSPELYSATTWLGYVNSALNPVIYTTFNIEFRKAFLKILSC
Procedure, shortened: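 Competition radioligand binding at human D2, D3 and D4.4 receptors, detected by scintillation counting; nonspecific binding defined with excess unlabelled ligand. Results as percent inhibition of control specific binding; IC50 by Hill-equation nonlinear regression; Ki via Cheng-Prusoff, with radioligand KD from Scatchard plot.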

5-HT2A receptor = target: T2, 5-HT2A receptor (Homo sapiens, UniProt P28223); assay: Radioligand binding assay, serotoninergic 5-HT2A receptors; details: binding assay result in %, Table 5a
T2 construct: purchased PerkinElmer
T2 sequence (P28223 whole entry): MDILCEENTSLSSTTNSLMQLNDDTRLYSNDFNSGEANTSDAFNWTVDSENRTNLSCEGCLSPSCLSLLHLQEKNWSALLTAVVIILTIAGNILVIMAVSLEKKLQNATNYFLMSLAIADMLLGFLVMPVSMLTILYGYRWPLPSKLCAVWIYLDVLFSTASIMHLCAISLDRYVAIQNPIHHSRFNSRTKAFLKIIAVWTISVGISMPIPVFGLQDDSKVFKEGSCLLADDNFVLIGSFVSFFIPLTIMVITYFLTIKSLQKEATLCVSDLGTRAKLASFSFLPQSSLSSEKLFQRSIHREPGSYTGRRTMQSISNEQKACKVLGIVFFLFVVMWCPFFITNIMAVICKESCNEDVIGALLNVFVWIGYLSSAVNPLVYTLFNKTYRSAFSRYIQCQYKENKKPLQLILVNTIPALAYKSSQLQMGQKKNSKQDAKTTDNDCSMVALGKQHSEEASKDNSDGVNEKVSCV
Procedure, shortened: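 Radioligand competition binding with scintillation counting; nonspecific binding defined by excess unlabelled ligand. Data as percent inhibition of control specific binding. IC50 by Hill-equation fit of competition curves; Ki by Cheng-Prusoff, with radioligand Kd from Scatchard plot.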

[4] = target: T3, 5-HT1A receptor (rat hippocampus) (Rattus norvegicus, UniProt P19327); assay: Radioligand binding assay, serotoninergic 5-HT1A receptors; details: binding assay result in %, Table 5a;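 note: test compound at 1 µM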
T3 construct: hippocampus; from tissue; host or cells: rat hippocampus
T3 sequence (P19327 1-422): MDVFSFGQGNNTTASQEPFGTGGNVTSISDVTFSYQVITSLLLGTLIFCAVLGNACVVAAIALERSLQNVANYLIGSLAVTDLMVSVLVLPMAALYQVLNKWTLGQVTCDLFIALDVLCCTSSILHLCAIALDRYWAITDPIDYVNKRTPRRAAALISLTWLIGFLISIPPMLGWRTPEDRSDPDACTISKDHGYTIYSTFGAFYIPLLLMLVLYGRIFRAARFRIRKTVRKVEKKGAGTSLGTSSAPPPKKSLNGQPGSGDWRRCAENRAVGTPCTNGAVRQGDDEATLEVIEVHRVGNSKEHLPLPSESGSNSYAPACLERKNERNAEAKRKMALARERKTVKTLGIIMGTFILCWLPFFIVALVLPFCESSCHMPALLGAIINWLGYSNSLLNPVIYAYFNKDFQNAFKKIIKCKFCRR

5-HT7 receptor = target: T4, 5-HT7 receptor (Homo sapiens, UniProt P34969); assay: Radioligand binding assay, serotoninergic 5-HT7 receptors; details: binding assay result in %, Table 5a;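 note: test compound at 1 µM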
T4 construct: purchased PerkinElmer
T4 sequence (P34969 whole entry): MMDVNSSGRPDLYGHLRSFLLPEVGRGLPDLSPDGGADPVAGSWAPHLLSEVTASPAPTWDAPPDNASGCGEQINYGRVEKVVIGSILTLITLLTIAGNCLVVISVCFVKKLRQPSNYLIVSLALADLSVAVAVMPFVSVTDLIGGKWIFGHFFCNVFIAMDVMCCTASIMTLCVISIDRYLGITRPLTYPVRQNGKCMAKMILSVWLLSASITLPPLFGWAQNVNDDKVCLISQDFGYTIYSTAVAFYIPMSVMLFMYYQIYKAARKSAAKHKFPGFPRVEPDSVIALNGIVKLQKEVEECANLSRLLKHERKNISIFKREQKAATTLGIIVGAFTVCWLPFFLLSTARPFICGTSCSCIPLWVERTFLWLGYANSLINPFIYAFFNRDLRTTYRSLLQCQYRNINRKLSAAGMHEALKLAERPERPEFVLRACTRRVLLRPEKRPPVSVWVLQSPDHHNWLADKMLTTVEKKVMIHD
Procedure, shortened: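 Competition binding at human 5-HT7 receptors with a radioligand, detected by scintillation counting; non-specific binding was defined with excess unlabelled ligand. IC50 came from Hill-equation fits of competition curves, and Ki from Cheng–Prusoff using radioligand concentration and Scatchard-derived KD.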

5-HT6 receptor = target: T5, 5-HT6 receptor (Homo sapiens, UniProt P50406); assay: Radioligand binding assay, serotoninergic 5-HT6 receptors; details: binding assay result in %, Table 5a;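 note: test compound at 1 µM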
T5 construct: purchased PerkinElmer
T5 sequence (P50406 whole entry): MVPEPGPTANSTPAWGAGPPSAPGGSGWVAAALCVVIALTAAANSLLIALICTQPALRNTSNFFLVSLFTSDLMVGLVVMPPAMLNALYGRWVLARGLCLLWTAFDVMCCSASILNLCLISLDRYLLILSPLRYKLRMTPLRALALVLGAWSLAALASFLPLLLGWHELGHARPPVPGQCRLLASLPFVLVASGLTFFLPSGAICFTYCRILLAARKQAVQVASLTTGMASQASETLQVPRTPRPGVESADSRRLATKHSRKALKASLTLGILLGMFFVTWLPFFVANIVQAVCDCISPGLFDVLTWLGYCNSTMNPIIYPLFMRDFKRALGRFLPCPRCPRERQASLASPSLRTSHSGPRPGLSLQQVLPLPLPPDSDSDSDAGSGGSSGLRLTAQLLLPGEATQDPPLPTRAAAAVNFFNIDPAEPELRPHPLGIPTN
Procedure, shortened: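 Values are Ki from Cheng–Prusoff, taking IC50 from Hill nonlinear regression of competition curves and KD from a Scatchard plot. Specific binding was total minus binding with excess unlabelled ligand. Radioligand displacement was detected by scintillation counting, and data were also reported as percent of control specific binding.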

[5] = target: dopaminergic receptors D2 (Homo sapiens, UniProt P14416); assay: Radioligand binding assay, dopaminergic D2 receptors; details: binding assay, test compound 1×10^−6 M
Chain of dopaminergic receptors D2 (P14416 whole entry): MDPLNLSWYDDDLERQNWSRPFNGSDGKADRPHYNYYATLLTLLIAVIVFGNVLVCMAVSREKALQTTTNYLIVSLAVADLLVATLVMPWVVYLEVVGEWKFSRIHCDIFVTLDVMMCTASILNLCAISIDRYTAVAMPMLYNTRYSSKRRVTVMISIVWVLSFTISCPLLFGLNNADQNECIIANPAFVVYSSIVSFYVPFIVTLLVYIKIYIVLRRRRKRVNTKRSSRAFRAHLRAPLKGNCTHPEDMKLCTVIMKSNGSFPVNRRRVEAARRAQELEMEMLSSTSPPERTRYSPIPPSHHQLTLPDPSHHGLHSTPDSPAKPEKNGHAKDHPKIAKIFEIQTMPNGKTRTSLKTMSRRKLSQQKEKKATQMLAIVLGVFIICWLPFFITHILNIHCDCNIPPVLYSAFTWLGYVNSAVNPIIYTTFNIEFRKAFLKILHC
Procedure, shortened: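 Competition binding with scintillation counting of bound radioligand; specific binding taken as total minus non-specific binding measured with excess unlabelled ligand. IC50 obtained by Hill-equation non-linear regression of replicate-mean curves, then converted to Ki via Cheng–Prusoff using radioligand concentration and Scatchard-derived KD.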

T1 sequence (P31645 whole entry): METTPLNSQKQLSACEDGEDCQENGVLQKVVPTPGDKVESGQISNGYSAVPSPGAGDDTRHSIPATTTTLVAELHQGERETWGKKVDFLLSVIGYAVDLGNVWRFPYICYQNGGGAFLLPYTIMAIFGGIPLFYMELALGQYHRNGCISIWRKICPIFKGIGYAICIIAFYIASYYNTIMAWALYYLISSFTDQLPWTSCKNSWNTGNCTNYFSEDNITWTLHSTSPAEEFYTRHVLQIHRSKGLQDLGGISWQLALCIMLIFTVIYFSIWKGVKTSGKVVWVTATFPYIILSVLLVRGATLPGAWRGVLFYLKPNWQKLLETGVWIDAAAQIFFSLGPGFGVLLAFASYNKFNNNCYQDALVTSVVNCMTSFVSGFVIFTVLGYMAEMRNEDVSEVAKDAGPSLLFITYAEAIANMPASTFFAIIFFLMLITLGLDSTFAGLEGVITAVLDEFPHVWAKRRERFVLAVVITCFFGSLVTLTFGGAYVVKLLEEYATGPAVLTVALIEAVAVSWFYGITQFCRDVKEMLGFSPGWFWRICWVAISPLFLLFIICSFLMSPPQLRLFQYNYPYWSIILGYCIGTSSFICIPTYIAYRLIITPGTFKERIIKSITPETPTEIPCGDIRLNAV

Row | Compound | SERT [%] [1] | α1 [%] [2] | D3 [%] [3] | 5-HT2A [%] (5-HT2A receptor) | 5-HT1A [%] [4] | 5-HT7 [%] (5-HT7 receptor) | 5-HT6 [%] (5-HT6 receptor) | D2 [%] [5] | inhibition at 1 µM [1] | inhibition at 1 µM [3] | inhibition at 1 µM (5-HT2A receptor) | inhibition at 1 µM [4] | inhibition at 1 µM (5-HT7 receptor) | inhibition at 1 µM (5-HT6 receptor) | inhibition at 1 µM [5]
1 | 3,4-Dichloro-N-[1-[3-(6-fluoro-1,2-benzoxazol-3-yl)propyl]pyrrolidin-3-yl]benzenesulphonamide [Compound 211] | 4% | 90% | 63% | 100% | 32% | 107% | 92% | 93% | – | – | – | – | – | – | –
2 | O=S(=O)(NC1CCN(CCCc2noc3cc(F)ccc23)CC1)c1ccc2ccccc2c1 [Compound 35, N-[1-[3-(6-Fluoro-1,2-benzoxazol-3-yl)propyl]-4-piperidine]-naphthalene-2-sulphonamide] | 29% | 99% | 56% | 91% | 28% | 98% | 97% | 77% | – | – | – | – | – | – | –
3 | O=S(=O)(NC1CN(CCOc2cccc3c2OCCO3)C1)c1cccc(Cl)c1 [Compound 91, 3-Chloro-N-[1-[2-(2,3-dihydro-1,4-benzodioxan-8-yloxy)ethyl]azetidin-3-yl]benzenesulphonamide] | −4% | −15% | −8% | 47% | 88% | 91% | −20% | 15% | – | – | – | – | – | – | –
4 | O=S(=O)(NCC1CCN(CCOc2cccc3c2OCCO3)C1)c1ccc(Cl)cc1 (centres unmarked) [Compound 289, 4-Chloro-N-[[1-[2-(2,3-dihydro-1,4-benzodioxin-5-yloxy)ethyl]pyrrolidin-3-yl]methyl]benzenesulphonamide] | – | 46% | – | – | – | – | – | – | 53% | 41% | 61% | 99% | 81% | -1% | -19%
5 | O=S(=O)(NCC1CCN(CCOc2cccc3ccccc23)C1)c1csc2ccccc12 (centres unmarked) [Compound 276, N-[[1-[2-(1-Naphthyloxy)ethyl]pyrrolidin-3-yl]methyl]benzothiophene-3-sulphonamide] | – | 16% | – | – | – | – | – | – | 84% | 91% | 92% | 81% | 82% | 84% | 41%
6 | O=S(=O)(NCC1CN(CCOc2cccc3c2OCCO3)C1)c1cccc2ccccc12 [Compound 176, N-[[1-[2-(2,3-Dihydro-1,4-benzodioxin-5-yloxy)ethyl]azetidin-3-yl]methyl]-naphthalene-1-sulphonamide] | – | 51% | – | – | – | – | – | – | -2% | 8% | 35% | 98% | 87% | 14% | 21%
7 | O=S(=O)(NC1CCN(CCCc2c[nH]c3ccc(Cl)cc23)C1)c1ccc(F)cc1 (centres unmarked) [Compound 83, N-[1-[3-(5-Chloro-1H-indol-3-yl)propyl]pyrrolidin-3-yl]-4-fluoro-benzenesulphonamide] | – | 23% | – | – | – | – | – | – | 78% | 76% | 82% | 104% | 86% | 84% | 44%
8 | O=S(=O)(NCC1CCN(CCOc2cccc3ccccc23)C1)c1cccc(O)c1 (centres unmarked) [Compound 123, 3-Hydroxy-N-[[1-[2-(1-naphthyloxy)ethyl]pyrrolidin-3-yl]methyl]-benzenesulphonamide] | – | 43% | – | – | – | – | – | – | 83% | 86% | 64% | 99% | 88% | 72% | 38%
9 | O=S(=O)(NC1CCN(CCCc2c[nH]c3ccc(Cl)cc23)C1)c1ccc2ccccc2c1 (centres unmarked) [Compound 87, N-[1-[3-(5-Chloro-1H-indol-3-yl)propyl]pyrrolidin-3-yl]naphthalene-2-sulphonamide] | – | 18% | – | – | – | – | – | – | 64% | 86% | 78% | 105% | 71% | 91% | 63%
10 | O=S(=O)(NC1CCN(CCOc2cccc3c2OCCO3)C1)c1cccc2ccccc12 (centres unmarked) [Compound 98, N-[1-[2-(2,3-Dihydro-1,4-benzodioxan-8-yloxy)ethyl]pyrrolidin-3-yl]-naphthalene-1-sulphonamide] | 16% | 78% | 67% | 87% | 92% | 100% | 32% | 62% | – | – | – | – | – | – | –
11 | Cc1cccc(S(=O)(=O)NC2CCN(CCOc3cccc4c3OCCO4)CC2)c1 [Compound 118, N-[1-[2-(2,3-Dihydro-1,4-benzodioxan-8-yloxy)ethyl]-4-piperidine]-3-methyl-benzenesulphonamide] | 41% | 72% | 20% | 83% | 85% | 99% | 51% | 32% | – | – | – | – | – | – | –
12 | O=S(=O)(NCC1CCN(CCOc2nsc3ccccc23)C1)c1ccc2ccccc2c1 (centres unmarked) [Compound 44, N-[[1-[2-(1,2-Benzothiazol-3-yloxy)ethyl]pyrrolidin-3-yl]methyl]naphthalene-2-sulphonamide] | – | 46% | – | – | – | – | – | – | 25% | 52% | 78% | 62% | 68% | 81% | 76%
13 | O=S(=O)(NC1CCN(CCCc2noc3cc(F)ccc23)C1)c1cccc(C(F)(F)F)c1 (centres unmarked) [Compound 15, N-[1-[3-(6-Fluoro-1,2-benzoxazol-3-yl)propyl]pyrrolidin-3-yl]-3-(trifluoromethyl)benzenesulphonamide] | – | 89% | – | – | – | – | – | – | -7% | 14% | 57% | 18% | 48% | 83% | 75%
14 | O=S(=O)(NCC1CN(CCOc2cccc3ccccc23)C1)c1csc2ccccc12 [Compound 171, N-[[1-[2-(1-Naphthyloxy)ethyl]azetidin-3-yl]methyl]benzothiophene-3-sulphonamide] | – | 50% | – | – | – | – | – | – | 44% | 99% | 101% | 92% | 94% | 96% | 72%
15 | O=S(=O)(NCC1CCN(CCOc2nsc3ccccc23)C1)c1cccc(O)c1 (centres unmarked) [Compound 43, N-[[1-[2-(1,2-Benzothiazol-3-yloxy)ethyl]pyrrolidin-3-yl]methyl]-3-hydroxy-benzenesulphonamide] | – | 68% | – | – | – | – | – | – | -7% | 29% | 81% | 83% | 71% | 87% | 55%
16 | O=S(=O)(NC1CCN(CCCc2c[nH]c3ccc(Cl)cc23)C1)c1ccccc1 (centres unmarked) [Compound 81, N-[1-[3-(5-Chloro-1H-indol-3-yl)propyl]pyrrolidin-3-yl]benzene-sulphonamide] | – | 36% | – | – | – | – | – | – | 78% | 86% | 75% | 109% | 84% | 75% | 60%
